# Measurements reported in ChEMBL document CHEMBL1201862, “PubChem BioAssay data set” (2004).
# Calls of active or inactive are those of the source.
# Assays:
# Assay type in all cases: functional
# [1] = target: Integrin alpha-4 (Homo sapiens, UniProt P13612); assay: allosteric modulators of alpha4 integrin VLA-4 – cell-based, LIBS antibody binding, flow cytometry, SAR follow-up (AID 488791)
# [2] = target: Sphingosine 1-phosphate receptor 4 (Homo sapiens, UniProt O95977); assay: Late-stage fluorescence dose response cell-based assay to identify agonists of the Sphingosine 1-Phosphate Receptor 4 (S1P4): purchased compounds EC50. [Related pubchem assays (depositor defined):AID1509, AID1523, AID1563, AID1686, AID1701, AID1801]
# [3] = target: Dual specificity protein phosphatase 3 (Homo sapiens, UniProt P51452); assay: SAR VHR1 Fluorescent Assay for In Vitro dose response studies Set 2. [Related pubchem assays (depositor defined):AID1654, AID1661, AID1878]
# [4] = target: T1, Dual specificity protein phosphatase 6 (Rattus norvegicus, UniProt Q64346);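 also: confirmatory in vitro dose-response testing of MKP-3 inhibition; recombinant His-tagged MKP-3 made in E. coli BL21 with OMFP substrate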
# T1 sequence (Q64346 whole entry): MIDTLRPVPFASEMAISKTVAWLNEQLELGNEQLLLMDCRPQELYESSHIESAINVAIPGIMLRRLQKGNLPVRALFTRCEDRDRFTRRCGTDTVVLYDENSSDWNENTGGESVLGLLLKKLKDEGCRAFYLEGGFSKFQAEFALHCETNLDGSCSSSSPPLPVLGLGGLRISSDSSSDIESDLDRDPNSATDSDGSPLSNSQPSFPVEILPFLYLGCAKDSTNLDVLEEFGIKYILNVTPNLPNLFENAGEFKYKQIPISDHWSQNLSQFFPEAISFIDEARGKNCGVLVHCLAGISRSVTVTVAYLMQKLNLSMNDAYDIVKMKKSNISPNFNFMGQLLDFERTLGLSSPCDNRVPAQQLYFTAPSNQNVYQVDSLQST
# [5] = target: Delta-type opioid receptor (Homo sapiens, UniProt P41143); assay: SAR Analysis of Antagonists of the DOR Receptor using an Image-Based Assay - Set 3. [Related pubchem assays (depositor defined):AID1777, AID1785];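 also: U2OS cells expressing DOR1 and beta-arrestin GFP stimulated with 100 nM SNC80; imaging of GFP-tagged beta-arrestin moving into spots after receptor activation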
# [6] = target: T2, Kappa-type opioid receptor (Homo sapiens, UniProt P41145); assay: SAR analysis of Antagonists of the Kappa Opioid Receptor (KOR) using an Image-Based Assay - Set 3. [Related pubchem assays (depositor defined):AID1777, AID1785]
# [7] = target: Mu-type opioid receptor (Homo sapiens, UniProt P35372); assay: SAR Analysis of Antagonists of the MOR Receptor using an Image-Based Assay - Set 3. [Related pubchem assays (depositor defined):AID1777, AID1785, AID1786, AID1966, AID2133, AID2136, AID2284, AID2285, AID2420]
# [8] = target: T2, Kappa-type opioid receptor; assay: SAR analysis of small molecule antagonists of the kappa opioid receptor via a luminescent beta-arrestin assay - Set 3. [Related pubchem assays (depositor defined):AID1777, AID1778, AID1785, AID1786, AID1966, AID2133, AID2136, AID2285, AID2495]
# T2 sequence (P41145 whole entry): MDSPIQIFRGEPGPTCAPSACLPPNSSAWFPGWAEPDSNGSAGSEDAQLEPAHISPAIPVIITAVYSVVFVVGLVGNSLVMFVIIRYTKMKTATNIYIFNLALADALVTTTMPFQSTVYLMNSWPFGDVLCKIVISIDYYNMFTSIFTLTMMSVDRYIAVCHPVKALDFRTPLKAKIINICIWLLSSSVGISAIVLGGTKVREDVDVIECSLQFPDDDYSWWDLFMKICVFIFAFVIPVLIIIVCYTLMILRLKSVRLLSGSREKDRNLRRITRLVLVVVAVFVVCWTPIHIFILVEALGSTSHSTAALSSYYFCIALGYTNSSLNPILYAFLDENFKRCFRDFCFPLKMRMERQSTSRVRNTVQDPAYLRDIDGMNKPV
# Sequence of Sphingosine 1-phosphate receptor 4 (O95977 whole entry): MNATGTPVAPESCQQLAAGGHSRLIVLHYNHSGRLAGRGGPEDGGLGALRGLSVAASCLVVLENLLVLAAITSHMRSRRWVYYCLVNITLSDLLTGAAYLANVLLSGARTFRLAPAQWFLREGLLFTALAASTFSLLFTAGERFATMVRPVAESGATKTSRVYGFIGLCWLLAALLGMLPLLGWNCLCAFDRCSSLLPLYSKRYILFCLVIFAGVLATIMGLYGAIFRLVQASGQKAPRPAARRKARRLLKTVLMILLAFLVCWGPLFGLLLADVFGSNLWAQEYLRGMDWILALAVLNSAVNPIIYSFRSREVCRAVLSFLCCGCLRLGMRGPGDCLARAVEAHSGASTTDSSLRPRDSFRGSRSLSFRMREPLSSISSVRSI
# Sequence of Integrin alpha-4 (P13612 whole entry): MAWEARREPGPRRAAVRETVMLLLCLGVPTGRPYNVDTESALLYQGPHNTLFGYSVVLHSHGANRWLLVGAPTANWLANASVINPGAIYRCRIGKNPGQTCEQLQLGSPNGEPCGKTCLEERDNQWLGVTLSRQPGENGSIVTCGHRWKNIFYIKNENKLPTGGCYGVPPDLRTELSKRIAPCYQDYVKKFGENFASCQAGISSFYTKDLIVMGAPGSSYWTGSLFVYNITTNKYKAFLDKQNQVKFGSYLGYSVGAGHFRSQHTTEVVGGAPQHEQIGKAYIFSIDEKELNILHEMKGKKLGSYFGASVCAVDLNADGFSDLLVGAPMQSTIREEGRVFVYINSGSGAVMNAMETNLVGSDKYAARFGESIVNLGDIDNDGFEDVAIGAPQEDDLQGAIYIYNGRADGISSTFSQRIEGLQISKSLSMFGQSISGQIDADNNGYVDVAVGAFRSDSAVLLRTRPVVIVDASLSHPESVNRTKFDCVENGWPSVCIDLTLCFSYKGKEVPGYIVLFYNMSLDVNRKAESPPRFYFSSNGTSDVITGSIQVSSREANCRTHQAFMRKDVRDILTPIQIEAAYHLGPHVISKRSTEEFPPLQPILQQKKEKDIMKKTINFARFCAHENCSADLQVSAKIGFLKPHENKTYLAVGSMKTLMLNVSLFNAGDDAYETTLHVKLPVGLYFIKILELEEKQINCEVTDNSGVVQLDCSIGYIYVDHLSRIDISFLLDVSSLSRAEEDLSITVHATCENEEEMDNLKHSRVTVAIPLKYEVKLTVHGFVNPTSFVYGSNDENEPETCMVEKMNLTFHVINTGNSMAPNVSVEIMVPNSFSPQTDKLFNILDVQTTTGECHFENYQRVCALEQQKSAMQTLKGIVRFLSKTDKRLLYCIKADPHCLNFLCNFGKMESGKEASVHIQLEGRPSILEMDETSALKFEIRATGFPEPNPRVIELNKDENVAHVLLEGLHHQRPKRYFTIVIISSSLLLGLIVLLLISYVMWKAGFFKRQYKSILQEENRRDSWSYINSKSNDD
# Sequence of Dual specificity protein phosphatase 3 (P51452 whole entry): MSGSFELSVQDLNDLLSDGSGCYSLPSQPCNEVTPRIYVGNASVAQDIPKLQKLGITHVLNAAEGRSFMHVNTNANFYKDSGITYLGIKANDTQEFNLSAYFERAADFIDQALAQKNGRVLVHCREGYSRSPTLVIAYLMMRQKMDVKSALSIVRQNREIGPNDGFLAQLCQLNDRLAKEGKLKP
# Sequence of Delta-type opioid receptor (P41143 whole entry): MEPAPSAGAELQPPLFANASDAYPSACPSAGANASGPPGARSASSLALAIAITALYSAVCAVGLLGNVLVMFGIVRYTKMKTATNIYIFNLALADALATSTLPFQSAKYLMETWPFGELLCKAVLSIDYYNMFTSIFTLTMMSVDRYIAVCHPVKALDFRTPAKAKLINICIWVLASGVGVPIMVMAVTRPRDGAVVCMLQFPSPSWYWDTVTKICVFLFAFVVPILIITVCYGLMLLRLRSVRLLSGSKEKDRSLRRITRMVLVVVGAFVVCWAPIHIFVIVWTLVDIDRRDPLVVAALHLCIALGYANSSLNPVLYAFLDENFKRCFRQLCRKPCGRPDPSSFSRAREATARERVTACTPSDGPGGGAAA
# Sequence of Mu-type opioid receptor (P35372 whole entry): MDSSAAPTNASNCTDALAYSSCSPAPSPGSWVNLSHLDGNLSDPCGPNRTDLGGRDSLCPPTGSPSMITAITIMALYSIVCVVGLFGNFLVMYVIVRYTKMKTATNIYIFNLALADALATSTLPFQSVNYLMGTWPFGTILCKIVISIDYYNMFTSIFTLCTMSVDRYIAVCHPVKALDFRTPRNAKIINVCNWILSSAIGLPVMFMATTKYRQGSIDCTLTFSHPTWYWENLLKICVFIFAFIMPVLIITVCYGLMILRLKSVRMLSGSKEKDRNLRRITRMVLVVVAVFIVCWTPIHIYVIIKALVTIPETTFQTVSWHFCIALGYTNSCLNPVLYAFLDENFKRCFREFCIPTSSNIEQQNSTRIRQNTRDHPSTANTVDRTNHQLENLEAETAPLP
smiles,measurement,setting,value
O=C1NC(=O)C2(N1)c1ccccc1-c1ccccc12,EC50,[1],0.334 µM (active)
Cc1ccc(CNC(=O)C(C)OC(=O)c2c(C)nn(Cc3ccccc3)c2Cl)cc1 (stereo not drawn),EC50,[2],> 50 µM (inactive)
Cc1ccc(C(=O)NC2CCSc3ccccc32)cc1S(N)(=O)=O (stereo not drawn),IC50,[3],> 100 µM (inactive)
same,IC50,[4],> 100 µM (inactive)
CCN(CCNC(=O)c1ccc(CNS(=O)(=O)c2ccc(Br)cc2)cc1)Cc1ccccc1,IC50,[5],> 32 µM (inactive)
same,IC50,[6],4.82 µM (active)
same,IC50,[7],8.46 µM (active)
same,IC50,[8],19.4 µM (inactive)
